Assay results as given in patent US12622880B2, “Therapeutic system for the topical, transdermal and transcutaneous application of carbon monoxide” (Julius-Maximilians-Universitaet Wuerzburg, priority 2020, dated 2026).

Experiment: CO release through pig ear skin
Type: in vitro ADME
Experimental: Pig ear skin was purchased from a butcher and prepared immediately after delivery. Skin was carefully removed from the remaining fat and cartilage. Subsequent to the preparation, the skin was clamped between the top and bottom compartment of the test cell. Sealing was ensured by screw clamps and a sealing ring (FIG. 5A).
For the experiment 15 mg of tri-sodium Beck-1 ((Mo(CO)3(CNCH2CO2Na)3) were placed in the bottom compartment of the test cell and dissolved in 4 mL H2O. CO release was activated by adding 1 mL of iron(III)chloride solution (350 mg/mL) to the tri-sodium Beck-1. CO release through the pig skin was measured over a time period of 1000 minutes.
The data shown in FIG. 6 illustrates that CO release trough the pig skin is a slow process and reaches plateau in the raw data at around 500 minutes and stays at that plateau of 200 ppm CO for another 500 minutes until the end of the experiment. A plateau in the raw data means that the sensor consumption of CO is at the same rate as the release through the skin. To correct for the sensor consumption, CO release data of tri-sodium Beck-1 without any limiting membranes were used to calculate the consumption rate of the sensor.

## [C-]#[O+] [CO, carbon monoxide]
15 mg tri-sodium Beck-1 activated with iron(III)chloride, at 1000 minutes, corrected for sensor consumption of CO
  CO release through the pig skin, maximum in the corrected data: 340 ppm
15 mg tri-sodium Beck-1 in 4 mL H2O activated with 1 mL iron(III)chloride solution (350 mg/mL), averaged raw data (n=2), plateau held until 1000 minutes
  CO release through the pig skin, plateau in the raw data: 200 ppm
15 mg tri-sodium Beck-1 in 4 mL H2O activated with 1 mL iron(III)chloride solution (350 mg/mL), raw data
  time at which CO release through the pig skin reaches plateau in the raw data: around 500 minutes
